# Assay results reported in ChEMBL document CHEMBL1201862, “PubChem BioAssay data set” (2004).
#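 Briefly, cells in 96-well plates were exposed to five compound concentrations for 48 h, and endpoints were estimated by linear interpolation. GI50 marks 50% less growth.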 Activity calls are given as the source filed them. No stated cut-off is given here; in the data, active = GI50 up to about 1.1 µM and inactive = higher. Where a SMILES comes first, the peptide text is derived from it. [ ]: non-standard residue; d: D form. The star is where a group is joined. mTyr = N[CH](Cc1cccc(O)c1)C(=O)O; Cbz = O=C(OCc1ccccc1)*; OBn = c1ccc(CO*)cc1
# What was measured:
# Assay in all cases: NCI anticancer screen, dose series, 48 h
# HT-29 = tested on: HT-29
# SNB-75 = tested on: SNB-75
# NCI/ADR-RES = tested on: NCI/ADR-RES
# MDA-MB-231 = tested on: MDA-MB-231
# Malme-3M = tested on: Malme-3M
# 786-0 = tested on: 786-0
# SF-295 = tested on: SF-295
# NCI-H23 = tested on: NCI-H23
# UACC-257 = tested on: UACC-257
# UACC-62 = tested on: UACC-62
# MDA-N = tested on: MDA-N
# UO-31 = tested on: UO-31
# SNB-19 = tested on: SNB-19
# SN12C = tested on: SN12C
# A549 = tested on: A549
# TK-10 = tested on: TK-10
# ACHN = tested on: ACHN
# OVCAR-4 = tested on: OVCAR-4
# HOP-92 = tested on: HOP-92
Compound,GI50 (HT-29),GI50 (SNB-75),GI50 (NCI/ADR-RES),GI50 (MDA-MB-231),GI50 (Malme-3M),GI50 (786-0),GI50 (SF-295),GI50 (NCI-H23),GI50 (UACC-257),GI50 (UACC-62),GI50 (MDA-N),GI50 (UO-31),GI50 (SNB-19),GI50 (SN12C),GI50 (A549),GI50 (TK-10),GI50 (ACHN),GI50 (OVCAR-4),GI50 (HOP-92)
CCSCCCC(=O)O,> 100 µM (inactive),> 100 µM (inactive),> 100 µM (inactive),> 100 µM (inactive),> 100 µM (inactive),> 100 µM (inactive),> 100 µM (inactive),> 100 µM (inactive),> 100 µM (inactive),> 100 µM (inactive),> 100 µM (inactive),> 100 µM (inactive),> 100 µM (inactive),> 100 µM (inactive),> 100 µM (inactive),> 100 µM (inactive),> 100 µM (inactive),> 100 µM (inactive),
CN1CCN(CCCN)CC1,> 100 µM (inactive),> 100 µM (inactive),> 100 µM (inactive),> 100 µM (inactive),> 100 µM (inactive),> 100 µM (inactive),> 100 µM (inactive),> 100 µM (inactive),> 100 µM (inactive),> 100 µM (inactive),> 100 µM (inactive),> 100 µM (inactive),> 100 µM (inactive),> 100 µM (inactive),> 100 µM (inactive),> 100 µM (inactive),> 100 µM (inactive),> 100 µM (inactive),
O=Cc1ccc2[nH]c(=O)oc2c1,> 100 µM (inactive),,> 100 µM (inactive),> 100 µM (inactive),> 100 µM (inactive),> 100 µM (inactive),> 100 µM (inactive),> 100 µM (inactive),> 100 µM (inactive),> 100 µM (inactive),> 100 µM (inactive),23.1 µM (inactive),> 100 µM (inactive),> 100 µM (inactive),,> 100 µM (inactive),> 100 µM (inactive),,
CCCCCCC(O)C(=O)OC1C2C(CC1(C)C)C(O)C13OC1C(O)C1(CO1)[C@@]23C (some centres not stated),,8.83 µM (inactive),> 100 µM (inactive),48.6 µM (inactive),> 100 µM (inactive),25.4 µM (inactive),71.4 µM (inactive),58.2 µM (inactive),42.3 µM (inactive),26 µM (inactive),45.4 µM (inactive),66.8 µM (inactive),65.2 µM (inactive),54.7 µM (inactive),28.1 µM (inactive),44.9 µM (inactive),> 10 µM (inactive),22.7 µM (inactive),
CCCCCCn1c(SC)nc(COC(=O)NC)c1COC(=O)NC,20 µM (inactive),14.6 µM (inactive),25.5 µM (inactive),17.6 µM (inactive),,15.3 µM (inactive),20.2 µM (inactive),21.2 µM (inactive),19.4 µM (inactive),14.8 µM (inactive),19.2 µM (inactive),16.9 µM (inactive),16.1 µM (inactive),16.7 µM (inactive),16.4 µM (inactive),16.7 µM (inactive),16.6 µM (inactive),9.57 µM (inactive),
CC[C@@]1(O)C[C@H](OC2CC(N(C)C)C(OC3CC(O)C(OC4CCC(=O)C(C)O4)C(C)O3)C(C)O2)c2c(cc3c(c2O)C(=O)c2c(O)ccc(O)c2C3=O)[C@H]1C(=O)OC (some centres not stated),4.83e-05 µM (active),0.000105 µM (active),,0.00288 µM (active),9.06e-05 µM (active),< 0.01 µM (active),6.81e-05 µM (active),0.00157 µM (active),0.00202 µM (active),0.00341 µM (active),0.000427 µM (active),4.22e-05 µM (active),5.51e-05 µM (active),4.18e-05 µM (active),6.7e-05 µM (active),0.00152 µM (active),5.36e-05 µM (active),1.06e-05 µM (active),0.0008 µM (active)
COc1ccc(-c2c(N)n(-c3cccc(C(=O)O)c3)c(=O)c3cc([N+](=O)[O-])ccc23)cc1,> 100 µM (inactive),> 100 µM (inactive),> 100 µM (inactive),,,> 100 µM (inactive),> 100 µM (inactive),> 100 µM (inactive),> 100 µM (inactive),> 100 µM (inactive),> 100 µM (inactive),> 100 µM (inactive),> 100 µM (inactive),,> 100 µM (inactive),> 100 µM (inactive),> 100 µM (inactive),> 100 µM (inactive),
FC1(F)[Se]C2C3CCC(C3)C2C1(F)F (configuration not stated),,97.3 µM (inactive),> 100 µM (inactive),> 100 µM (inactive),> 100 µM (inactive),> 100 µM (inactive),35.2 µM (inactive),,,> 100 µM (inactive),> 100 µM (inactive),> 100 µM (inactive),> 100 µM (inactive),> 100 µM (inactive),> 100 µM (inactive),> 100 µM (inactive),> 100 µM (inactive),> 100 µM (inactive),
Cc1cc(-c2cscn2)c(O)c([N+](=O)[O-])c1,89.3 µM (inactive),,46.5 µM (inactive),,70.6 µM (inactive),60.8 µM (inactive),0.906 µM (active),58.3 µM (inactive),63.8 µM (inactive),62.7 µM (inactive),74.3 µM (inactive),50.2 µM (inactive),> 100 µM (inactive),45 µM (inactive),46.6 µM (inactive),52.7 µM (inactive),37.2 µM (inactive),82.6 µM (inactive),93.5 µM (inactive)
O=C(O)CNn1c(SCC(=O)O)nnc(/C=C/c2c(O)ccc3ccccc23)c1=O,41.9 µM (inactive),,15 µM (inactive),,40.3 µM (inactive),30.3 µM (inactive),3.89 µM (inactive),17.1 µM (inactive),35.9 µM (inactive),21.3 µM (inactive),48.4 µM (inactive),29.4 µM (inactive),64.7 µM (inactive),11.2 µM (inactive),44.2 µM (inactive),,33.8 µM (inactive),14.1 µM (inactive),
O=C(O)CC[N+]1=CCC(c2ccccc2)(c2ccccc2)O1,> 100 µM (inactive),44.1 µM (inactive),,> 100 µM (inactive),,> 100 µM (inactive),> 100 µM (inactive),> 100 µM (inactive),> 100 µM (inactive),> 100 µM (inactive),> 100 µM (inactive),> 100 µM (inactive),> 100 µM (inactive),> 100 µM (inactive),> 100 µM (inactive),> 100 µM (inactive),> 100 µM (inactive),> 100 µM (inactive),> 100 µM (inactive)
CCOC(=O)c1ccc(-n2cnc(-c3ccc([N+](=O)[O-])cc3)c2)cc1,> 100 µM (inactive),40.6 µM (inactive),> 100 µM (inactive),> 100 µM (inactive),80.7 µM (inactive),> 100 µM (inactive),> 100 µM (inactive),82.6 µM (inactive),> 100 µM (inactive),> 100 µM (inactive),> 100 µM (inactive),> 100 µM (inactive),35.7 µM (inactive),> 100 µM (inactive),> 100 µM (inactive),33.9 µM (inactive),> 100 µM (inactive),,
CO/N=C(\C)CCC#Cc1ccccc1C(=O)OC,> 10 µM (inactive),,> 10 µM (inactive),> 10 µM (inactive),> 10 µM (inactive),> 10 µM (inactive),> 10 µM (inactive),> 10 µM (inactive),> 10 µM (inactive),> 10 µM (inactive),> 10 µM (inactive),> 10 µM (inactive),> 10 µM (inactive),> 10 µM (inactive),> 10 µM (inactive),> 10 µM (inactive),> 10 µM (inactive),> 10 µM (inactive),
COC(=O)CNC(=O)Nc1cc(N2C(=O)ON3C2C(C)(C)N(O)C3(C)C)ccc1C (configuration not stated),> 100 µM (inactive),> 100 µM (inactive),> 100 µM (inactive),> 100 µM (inactive),> 100 µM (inactive),> 100 µM (inactive),55 µM (inactive),> 100 µM (inactive),> 100 µM (inactive),> 100 µM (inactive),> 100 µM (inactive),> 100 µM (inactive),> 100 µM (inactive),> 100 µM (inactive),> 100 µM (inactive),> 100 µM (inactive),> 100 µM (inactive),> 100 µM (inactive),
CC(=O)O[C@H]1CC2C(C3CCC(C(C)CCC(N)=O)[C@]31C)[C@H](OC(C)=O)C[C@@H]1CC3(CC[C@]21C)OOC1(CC[C@]2(C)C4C[C@H](OC(C)=O)[C@]5(C)C(C(C)CCC(N)=O)CCC5C4[C@H](OC(C)=O)C[C@@H]2C1)OO3 (some centres not stated),1.63 µM (inactive),1.56 µM (inactive),2.09 µM (inactive),1.51 µM (inactive),2.61 µM (inactive),1.55 µM (inactive),1.53 µM (inactive),1.49 µM (inactive),1.49 µM (inactive),,1.65 µM (inactive),1.13 µM (inactive),2.61 µM (inactive),1.79 µM (inactive),1.43 µM (inactive),1.8 µM (inactive),1.62 µM (inactive),1.83 µM (inactive),
COC(=O)C(Cc1cccc(O)c1)NC(=O)C(CC(=O)OCc1ccccc1)NC(=O)OCc1ccccc1 (configuration not stated) (Cbz-Asp(OBn)-[mTyr]-OMe; configuration not given here),88.5 µM (inactive),> 100 µM (inactive),,> 100 µM (inactive),> 100 µM (inactive),> 100 µM (inactive),,> 100 µM (inactive),> 100 µM (inactive),65.5 µM (inactive),> 100 µM (inactive),65.3 µM (inactive),65.8 µM (inactive),> 100 µM (inactive),> 100 µM (inactive),> 100 µM (inactive),63.5 µM (inactive),,29.1 µM (inactive)
